According to patent publication US20100022483A1, “Substituted Tetracycline Compounds” (Paratek Pharmaceuticals, Inc., priority 2008, published 2010):
Converted amounts (≈) assume the structure as drawn. Like-named read-outs stand apart in the source and are kept apart here.

Key:
[1] = in vitro; type: cell-based; conditions: Chinese hamster, Cytotox. CHO-K1
Method: (§1) COS-1 and CHO-K1 cell suspensions were prepared, seeded into 96-well tissue culture treated black-walled microtiter plates (density determined by cell line), and incubated overnight at 37° C., in 5% CO2 and approximately 95% humidity. The following day, serial dilutions of compound were prepared under sterile conditions and transferred to cell plates. Cell/Compound plates were incubated under the above conditions for 24 hours. Following the incubation period, media/compound was aspirated and 50 μl of resazurin (0.042 mg/ml in PBS w/Ca and Mg) is added. The plates were then incubated under the above conditions for 2 hours and then placed in the dark at room temperature for an additional 30 minutes. Fluorescence measurements were taken (excitation 535 nm, emission 590 nm). The IC50 (concentration of compound causing 50% growth inhibition) was then calculated. Table 3 includes IC50 data for several substituted tetracycline compounds.

[2] = tested on: gram positive bacteria; assay: In vitro anti-bacterial activity assay (broth dilution MIC), gram positive bacteria; type: cell-based, S. aureus; conditions: 18 h
Excerpt: (§2) Bacterial infections may be caused by a wide variety of gram positive and gram negative bacteria. Some of the compounds of the invention are useful as antibiotics against organisms which are resistant and/or sensitive to other tetracycline compounds. The antibiotic activity of the tetracycline compounds of the invention may by using the in vitro standard broth dilution method described in Waitz, J. A., CLSI, Document M7-A2, vol. 10, no. 8, pp. 13-20, 2nd edition, Villanova, Pa. (1990).
(§3) The following assay was used to determine the efficacy of the tetracycline compounds against gram positive and gram negative bacteria. 2 mg of each compound was dissolved in 100 μl of DMSO. […] The tetracycline compound solutions were diluted to 50 μL volumes, with a test compound concentration of 0.098 μg/ml. Optical density (OD) determinations were made from fresh log-phase broth cultures of the test strains. Dilutions were made to achieve a final cell density of […] CFU/ml. At OD=1, cell densities for different genera were approximately:
(§4) 50 μl of the cell suspensions were added to each well of microtiter plates. The final cell density was approximately 5×10^5 CFU/ml. These plates were incubated at 35° C. in an ambient air incubator for approximately 18 hours. The plates were read with a microplate reader and were visually inspected when necessary. The MIC was defined as the lowest concentration of the tetracycline compound that inhibits growth. Table 3 includes MIC data for several substituted tetracycline compounds.

[3] = tested on: gram negative bacteria; assay: In vitro anti-bacterial activity assay (broth dilution MIC), gram negative bacteria; type: cell-based, E. coli
Excerpt: as §2, §3, §4

[4] = Mammalian cytotoxicity assay (resazurin), COS-1 cells; type: cell-based; conditions: African green monkey, read-out: Cytotox. COS-1
Method: as §1

[5] = tested on: 3T3 fibroblast cells; assay: In vitro phototoxicity assay (neutral red; UV light-treated vs dark control plates); type: cell-based; conditions: for Photo Toxicity UV Tox50: UV light 50 minutes; for Photo Toxicity Dark Tox50: dark control plate
Method: 3T3 fibroblast cells were harvested and plated at a concentration of 1×10^5 cells/mL and the plates were incubated overnight at 37° C., in 5% CO2 and approximately 95% humidity. On the following day the medium was removed from the plates and replaced with Hanks' Balanced Salt Solution (HBSS). Compound dilutions were made in HBSS and added to the plates. For each compound tested, a duplicate plate was prepared that was not exposed to light as a control for compound toxicity. Plates were then incubated in a dark drawer (for controls), or under UV light (meter reading of 1.6-1.8 mW/cm^2) for 50 minutes. Cells were then washed with HBSS, fresh medium was added, and plates were incubated overnight as described above. The following day neutral red was added as an indicator of cell viability. The plates were then incubated for an additional 3 hours. Cells were then washed with HBSS and blotted on absorbent paper to remove excess liquid. A solution of 50% EtOH, 10% glacial acetic acid was added and after 20 minutes incubation the plate's absorbance at 535 nm was read using a Wallac Victor 5 spectrophotometer. The phototoxicity reflected the difference between the light-treated and control cultures. Table 3 includes phototoxicity (μM) data for several substituted tetracycline compounds.

[6] = Staphylococcus aureus, S. aureus MRSA5, read-out: Median MIC's G+ S. aureus MRSA5
[7] = Staphylococcus aureus, S. aureus RN450, read-out: Median MIC's G+ S. aureus RN450
[8] = Streptococcus pneumoniae, S. pneumoniae 157E-Strep, read-out: Median MIC's G+ S. pneumoniae 157E-Strep
[9] = Escherichia coli, 18 h, E. coli D1 209, read-out: Median MIC's G− E. coli D1 209
[10] = Escherichia coli, 18 h, E. coli MG 1655, read-out: Median MIC's G− E. coli MG 1655
[11] = Escherichia coli, ATCC25922, 18 h, E. coli ATCC 25922, read-out: Median MIC's G− E. coli ATCC 25922
[12] = Pseudomonas aeruginosa, 18 h, P. aeruginosa K201 PAO6609, read-out: Median MIC's G− P. aeruginosa K201 PAO6609

Row | Structure (SMILES) | IC50 at 24 h [1] [µM] | MIC [2, 6] [µg/mL] | MIC [2, 7] [µg/mL] | MIC [2, 8] [µg/mL] | MIC [3, 9] [µg/mL] | IC50 at 24 h [4] [µM] | Photo Toxicity UV Tox50 [5] [µM] | Photo Toxicity Dark Tox50 [5] [µM] | MIC [3, 10] [µg/mL] | MIC [3, 11] [µg/mL] | MIC [3, 12] [µg/mL]
1 | COc1ccc(CNCc2ccc(-c3ccc(O)c4c3C[C@H]3C[C@H]5[C@H](N(C)C)C(O)=C(C(N)=O)C(=O)[C@@]5(O)C(O)=C3C4=O)cc2)cc1 (stereo in doubt) [AW] | 13.5 | 1 (≈ 1.56 µM) | 0.06 (≈ 0.0938 µM) | 0.06 (≈ 0.0938 µM) | 1 (≈ 1.56 µM) | < 1.97 | – | – | – | – | –
2 | CO/N=C/c1ccc(-c2ccc(O)c3c2C[C@H]2C[C@H]4[C@H](N(C)C)C(O)=C(C(N)=O)C(=O)[C@@]4(O)C(O)=C2C3=O)o1 (stereo in doubt) [AZ] | 3.04 | 1 (≈ 1.86 µM) | 0.13 (≈ 0.242 µM) | 0.06 (≈ 0.112 µM) | 64 (≈ 119 µM) | < 2.44 | >156.79 | >156.79 | – | – | –
3 | CN(C)[C@H]1C(O)=C(C(N)=O)C(=O)[C@@]2(O)C(O)=C3C(=O)c4c(O)ccc(-c5cccc(C(N)=O)c5)c4C[C@H]3C[C@@H]12 (stereo in doubt) [B] | > 15.7 | 64 (≈ 120 µM) | 2 (≈ 3.75 µM) | 2 (≈ 3.75 µM) | 64 (≈ 120 µM) | > 15.7 | >156.64 | >156.64 | 64 (≈ 120 µM) | 64 (≈ 120 µM) | 64 (≈ 120 µM)
4 | CN(C)CCNC(=O)c1cccc(-c2ccc(O)c3c2C[C@H]2C[C@H]4[C@H](N(C)C)C(O)=C(C(N)=O)C(=O)[C@@]4(O)C(O)=C2C3=O)c1 [AB] | > 200 | 32 (≈ 52.9 µM) | 0.5 (≈ 0.827 µM) | 0.25 (≈ 0.413 µM) | 64 (≈ 106 µM) | > 200 | >200 | >200 | 16 (≈ 26.5 µM) | 32 (≈ 52.9 µM) | 64 (≈ 106 µM)
5 | CN(C)C(=O)c1cccc(-c2ccc(O)c3c2C[C@H]2C[C@H]4[C@H](N(C)C)C(O)=C(C(N)=O)C(=O)[C@@]4(O)C(O)=C2C3=O)c1 [AC] | > 9.4 | 16 (≈ 28.5 µM) | 0.25 (≈ 0.445 µM) | – | 64 (≈ 114 µM) | > 37.6 | – | – | – | – | –
6 | CN(C)CCNC(=O)c1ccc(-c2ccc(O)c3c2C[C@H]2C[C@H]4[C@H](N(C)C)C(O)=C(C(N)=O)C(=O)[C@@]4(O)C(O)=C2C3=O)cc1 [AD] | > 43.5 | 16 (≈ 26.5 µM) | 0.25 (≈ 0.413 µM) | 0.13 (≈ 0.215 µM) | 64 (≈ 106 µM) | > 43.5 | 135.17 | >140.2 | 8 (≈ 13.2 µM) | 16 (≈ 26.5 µM) | 64 (≈ 106 µM)
7 | CN(C)[C@@H]1C(O)=C(C(N)=O)C(=O)[C@@]2(O)C(O)=C3C(=O)c4c(O)ccc(-c5cccc(C(N)=O)c5)c4C[C@H]3C[C@@H]12 [AE] | > 15.7 | 4 (≈ 7.5 µM) | 0.06 (≈ 0.112 µM) | 0.06 (≈ 0.112 µM) | 64 (≈ 120 µM) | > 15.7 | >156.64 | >156.64 | 4 (≈ 7.5 µM) | 4 (≈ 7.5 µM) | 64 (≈ 120 µM)
8 | CN(C)[C@@H]1C(O)=C(C(N)=O)C(=O)[C@@]2(O)C(O)=C3C(=O)c4c(O)ccc(-c5ccc(NC(=O)CNC(C)(C)C)cc5)c4C[C@H]3C[C@@H]12 [AF] | > 13.7 | 4 (≈ 6.47 µM) | 0.06 (≈ 0.097 µM) | 0.06 (≈ 0.097 µM) | 2 (≈ 3.23 µM) | > 13.7 | >137.36 | >137.36 | – | – | –
9 | COCCNCC(=O)c1ccc(O)c2c1C[C@H]1C[C@H]3[C@H](N(C)C)C(O)=C(C(N)=O)C(=O)[C@@]3(O)C(O)=C1C2=O [AG] | > 158 | 64 (≈ 121 µM) | 4 (≈ 7.55 µM) | 4 (≈ 7.55 µM) | 64 (≈ 121 µM) | > 158 | >157.68 | >157.68 | 32 (≈ 60.4 µM) | 32 (≈ 60.4 µM) | 64 (≈ 121 µM)
